We go through 6 compounds from the NIST ThermoML archive (doi:10.1021/je901063s).

Data set [1] is described as follows: of the first substance listed, at infinite dilution; xn = mol fraction of the nth substance listed. As to conditions: 101 kPa, Liquid, flow mixing microcalorimeter, x1 = 0.
Data set [2] in a line: activity coefficient (dimensionless); of the first substance listed, at infinite dilution; xn = mol fraction of the nth substance listed. As to conditions: 101 kPa, Liquid, inert gas stripping, headspace analysis in two variants - the classical and the relative, Rayleigh distillation, and circulation still, x1 = 0.

“And” between values parts separate entries of the source, which are not always exact repeats. Identical values can stand only once. Numbers after ± are expanded uncertainties.

For `CCC(C)CO` (stereo unspecified) [2-methyl-1-butanol] + O, the partial molar enthalpy is -2.67 ± 0.0956 kcal/mol in data set [1] (288.15 K), -1.98 ± 0.0478 kcal/mol in data set [1] (298.15 K) and -1.29 ± 0.0239 kcal/mol in data set [1] (308.15 K). Also, the activity coefficient in data set [2] (273.35 K) was 86.3 ± 5.2; in data set [2] (283.15 K), 117 ± 7; in data set [2] (293.15 K), 138 and 134; in data set [2] (303.15 K), 158 and 151; in data set [2] (313.15 K), 163 and 173; in data set [2] (323.15 K), 180 and 173. Moreover, the activity coefficient in data set [2] (333.15 K) is 170 and 179; in data set [2] (343.15 K), 169 ± 10; in data set [2] (353.15 K) it was 160 ± 10; in data set [2] (363.15 K), 162 ± 10.

`CCC(C)(C)O` [2-methylbutan-2-ol] + O: the activity coefficient was 18.3 ± 1.1 in data set [2] (273.35 K); 24.5 ± 1.5 in data set [2] (283.15 K); 31.7 and 34.6 in data set [2] (293.15 K); 41.3 and 39.2 in data set [2] (303.15 K); 49 and 46.5 in data set [2] (313.15 K); 52.3 and 56.9 in data set [2] (323.15 K). For the same compound, the activity coefficient in data set [2] (333.15 K) is 59.3 and 61.4; in data set [2] (343.15 K) it was 64.2 ± 3.9; in data set [2] (353.15 K), 67.1 ± 4; in data set [2] (361.25 K) it was 75.4 ± 4.5; in data set [2] (371.45 K), 73.9 ± 4.4.

With `CC(C)C(C)O` (stereo unspecified) [3-methyl-2-butanol] + O, the activity coefficient in data set [2] (273.35 K) is 43.5 ± 2.6; in data set [2] (283.15 K), 61.5 ± 3.7; in data set [2] (293.15 K) it was 73.9 ± 4.4; in data set [2] (303.15 K), 86.5 ± 5.2; in data set [2] (313.15 K), 96.6 ± 5.8; in data set [2] (323.15 K), 104 ± 6. In addition, the activity coefficient in data set [2] (333.15 K) turned out to be 110 ± 7; in data set [2] (343.15 K) it was 111 ± 7; in data set [2] (353.15 K), 107 ± 6; in data set [2] (371.15 K), 108 ± 7.

As for `CC(C)CCO` [3-methylbutan-1-ol] + O, the activity coefficient was 94.9 ± 5.7 in data set [2] (273.35 K); 126 ± 8 in data set [2] (283.15 K); 148 and 146 in data set [2] (293.15 K); 161 and 164 in data set [2] (303.15 K); 173 and 175 in data set [2] (313.15 K); 179 and 184 in data set [2] (323.15 K). Also, the activity coefficient was 182 and 178 in data set [2] (333.15 K); 179 ± 11 in data set [2] (343.15 K); 164 ± 10 in data set [2] (353.15 K); 149 ± 9 in data set [2] (371.15 K).

As to `CCC(O)CC` [3-pentanol] + O, the activity coefficient in data set [2] (273.35 K) was 48.7 ± 2.9; in data set [2] (283.15 K) it was 63.1 ± 3.8; in data set [2] (293.15 K) it was 75.6 ± 4.5; in data set [2] (303.15 K) it was 88.7 ± 5.3; in data set [2] (313.15 K), 101 ± 6; in data set [2] (323.15 K), 108 ± 7. The activity coefficient in data set [2] (333.15 K) was 116 ± 7; in data set [2] (343.15 K), 111 ± 7; in data set [2] (353.15 K), 120 ± 7; in data set [2] (363.15 K), 117 ± 7; in data set [2] (371.15 K) it was 104 ± 6.

For `CCCC(C)O` (stereo unspecified) [pentan-2-ol] + O, the activity coefficient in data set [2] (273.35 K) is 58.8 ± 3.5; in data set [2] (283.15 K) it was 73.9 ± 4.4; in data set [2] (293.15 K), 89.2 and 86.1; in data set [2] (303.15 K) it was 104 and 103; in data set [2] (313.15 K), 119 ± 7; in data set [2] (323.15 K), 129 ± 8. For the same compound, the activity coefficient in data set [2] (333.15 K) is 134 ± 8; in data set [2] (343.15 K) it was 134 ± 8; in data set [2] (353.15 K) it was 124 ± 7; in data set [2] (363.15 K) it was 130 ± 8; in data set [2] (371.15 K), 118 ± 7.
